The values that follow come from patent US9023318B2, “Compounds with matrix-metalloproteinase inhibitory activity and imaging agents thereof” (Siemens Medical Solutions USA, Inc., priority 2011, dated 2015).

In general, inhibition refers to the change of the read-out against control, counted positive when it falls. For orientation: IC50 means the concentration that inhibits the measured activity by half.

One data set concerns the target recombinant MMP-13 (Homo sapiens, UniProt P45452). Kind of data set: MMP compound screening, recombinant MMP-13 (SensoLyte 390 Generic MMP Activity Kit). It is filed as biochemical. Particulars: read-out: inhibition of MMP-13 activity, % of total activity; for inhibition at 0.1 µM: 100 nM (0.1 uM) compound; for inhibition at 0.01 µM: 10 nM compound. As to the method:
(§1) The activities were determined using Fluorimetric SensoLyte® 390 Generic MMP Activity Kit from Anaspec (cat #72202). This assay kit can detect the activity of several MMPs such as MMP-1, 2, 7, 8, 9, 13, 14, 15, 16 and 24.
(§2) For screening MMP compounds, activated 2 nM of recombinant MMP-2, 8, 9 or 13 are pre-incubated with MMP compound (inhibitor) for 30 min at 37° C. The substrate is added and the inhibition of MMP activity is expressed as % of total activity (without the inhibitor incubation).

Another data set has as its target recombinant MMP-8 (Homo sapiens, UniProt P22894). In words: MMP compound screening, recombinant MMP-8 (SensoLyte 390 Generic MMP Activity Kit). The settings on record: read-out: inhibition of MMP-8 activity, % of total activity; for inhibition at 0.1 µM: 100 nM (0.1 uM) compound; for inhibition at 0.01 µM: 10 nM compound. It counts as biochemical. On the procedure: as §1, §2

In the next data set the target is T1, recombinant MMP-2 (Homo sapiens, UniProt P08253).
T1 sequence (P08253 110-660): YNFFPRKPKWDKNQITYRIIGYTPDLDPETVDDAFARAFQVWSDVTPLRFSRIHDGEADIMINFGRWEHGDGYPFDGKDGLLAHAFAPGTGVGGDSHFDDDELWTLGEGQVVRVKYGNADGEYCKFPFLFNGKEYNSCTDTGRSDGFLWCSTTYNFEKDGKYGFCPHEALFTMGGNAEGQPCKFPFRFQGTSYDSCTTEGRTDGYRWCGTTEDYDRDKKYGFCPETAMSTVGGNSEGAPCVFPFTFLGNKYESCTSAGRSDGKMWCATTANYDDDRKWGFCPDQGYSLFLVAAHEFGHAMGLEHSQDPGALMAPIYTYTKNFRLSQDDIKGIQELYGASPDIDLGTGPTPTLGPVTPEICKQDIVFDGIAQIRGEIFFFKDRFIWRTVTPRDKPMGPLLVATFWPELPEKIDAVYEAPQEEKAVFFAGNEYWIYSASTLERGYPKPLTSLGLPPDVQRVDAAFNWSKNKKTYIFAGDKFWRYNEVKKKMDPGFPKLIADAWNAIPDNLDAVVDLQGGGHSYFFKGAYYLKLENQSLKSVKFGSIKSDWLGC
In words: MMP compound screening, recombinant MMP-2 (SensoLyte 390 Generic MMP Activity Kit). It is filed as biochemical. The settings on record: for IC50: 2 nM enzyme, 30 min pre-incubation at 37° C.; for inhibition at 0.01 µM: 10 nM compound. As to the method:
as §1, §2

The nature of data set [1]: Biodistribution of M005: tumor and tissue fluorescence scans. It counts as in vivo, mouse. The settings on record: 4 h uptake time, Cy5 channel. On the procedure:
FIGS. 3-5 are mouse scans before and 4 hours after […] injection.

In another data set the target is recombinant MMP-9 (Homo sapiens, UniProt P14780). Kind of data set: MMP compound screening, recombinant MMP-9 (SensoLyte 390 Generic MMP Activity Kit). The settings on record: for inhibition at 0.01 µM: 10 nM compound. It is filed as biochemical. As to the method: as §1, §2
Sequence of recombinant MMP-9 (P14780 107-707 limits assumed, species assumed): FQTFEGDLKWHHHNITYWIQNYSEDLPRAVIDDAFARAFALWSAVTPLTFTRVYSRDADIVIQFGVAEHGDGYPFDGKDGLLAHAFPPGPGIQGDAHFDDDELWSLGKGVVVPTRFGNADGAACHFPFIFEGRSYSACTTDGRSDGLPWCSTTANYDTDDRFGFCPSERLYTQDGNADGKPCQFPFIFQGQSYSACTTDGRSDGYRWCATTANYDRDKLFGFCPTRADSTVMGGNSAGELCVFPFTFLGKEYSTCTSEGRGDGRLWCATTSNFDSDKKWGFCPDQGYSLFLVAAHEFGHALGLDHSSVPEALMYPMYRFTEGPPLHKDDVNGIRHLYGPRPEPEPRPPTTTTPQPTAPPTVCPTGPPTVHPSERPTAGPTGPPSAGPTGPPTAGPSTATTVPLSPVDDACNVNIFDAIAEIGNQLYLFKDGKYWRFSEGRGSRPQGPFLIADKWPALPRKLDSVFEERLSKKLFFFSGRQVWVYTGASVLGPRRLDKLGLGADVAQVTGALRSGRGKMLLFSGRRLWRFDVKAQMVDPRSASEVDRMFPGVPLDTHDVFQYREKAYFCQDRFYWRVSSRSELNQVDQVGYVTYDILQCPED
In the next data set the test system is MMP. In words: MMP inhibition, general statement. It is filed as biochemical. On the procedure:
as §1, §2

Setting [2] is: read-out: inhibition of MMP-2 activity, % of total activity.
Where [3] appears, read: read-out: inhibition of MMP-9 activity, % of total activity.

Sequence of recombinant MMP-8 (P22894 101-467, species assumed): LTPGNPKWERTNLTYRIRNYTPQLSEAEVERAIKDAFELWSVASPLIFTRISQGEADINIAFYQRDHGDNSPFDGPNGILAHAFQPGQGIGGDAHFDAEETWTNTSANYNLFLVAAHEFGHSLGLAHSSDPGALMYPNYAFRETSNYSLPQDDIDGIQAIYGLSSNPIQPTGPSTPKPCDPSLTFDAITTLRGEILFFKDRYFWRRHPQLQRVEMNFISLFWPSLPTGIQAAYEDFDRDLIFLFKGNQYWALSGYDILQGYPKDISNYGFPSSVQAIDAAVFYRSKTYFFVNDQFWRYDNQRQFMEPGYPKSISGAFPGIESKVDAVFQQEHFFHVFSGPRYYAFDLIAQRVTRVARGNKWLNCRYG

As for `COc1ccc(-c2cn(CCN([C@@H](C(=O)NO)C(C)C)S(=O)(=O)c3ccc(OC)cc3)nn2)cc1` [M001], the inhibition at 0.1 µM came out at 99% at recombinant MMP-13 and 92% at recombinant MMP-8.

`CCN1\C(=C/C=C/C=C/C2=[N+](CCCCCC(=O)NCCOCCOCCOCCn3cc(CN([C@@H](C(=O)NO)C(C)C)S(=O)(=O)c4ccc(OC)cc4)nn3)c3ccc4c(S(=O)(=O)O)cc(S(=O)(=O)[O-])cc4c3C2(C)C)C(C)(C)c2c1ccc1c(S(=O)(=O)O)cc(S(=O)(=O)O)cc21` [M003]: the inhibition at 0.1 µM at recombinant MMP-13 and on recombinant MMP-8 was 97% in each case. The IC50 at recombinant MMP-2 stood at 5.2 nM.

On to `COc1ccc(S(=O)(=O)N(Cc2cn(CCOCCOCCOCCNC(=O)CCCCC[N+]3=C(/C=C/C=C/C=C4\N(C)c5ccc6ccccc6c5C4(C)C)C(C)(C)c4c3ccc3ccccc43)nn2)[C@@H](C(=O)NO)C(C)C)cc1` [M004], for which the inhibition at 0.1 µM on recombinant MMP-13 stood at 91%; on recombinant MMP-8 it was 83%. Also, the IC50 at recombinant MMP-2 is 25 nM.

Take `CCN1C(=CC=CC=CC2=[N+](CCCCCC(=O)NCCCCC(NC(=O)Cn3cc(CCCF)nn3)C(=O)NCCOCCOCCOCCn3cc(CN(C(C(=O)NO)C(C)C)S(=O)(=O)c4ccc(OC)cc4)nn3)c3ccc4c(S(=O)(=O)O)cc(S(=O)(=O)[O-])cc4c3C2(C)C)C(C)(C)c2c1ccc1c(S(=O)(=O)O)cc(S(=O)(=O)O)cc21` (centres unmarked) [M005]: the “uptake in tumor and tissue (fluorescence)” value in data set [1] (with and without tracer injection) was “uptake above background fluorescence of tissue”. In addition, the “uptake into the brain” value in data set [1] (brain used as background tissue) is given as “no uptake of the tracer into the brain”. Also, the IC50 worked out at 2 nM at recombinant MMP-2 and 2.1 nM on recombinant MMP-9 (2 nM enzyme, 30 min pre-incubation at 37° C.).

For the molecule `COc1ccc(S(=O)(=O)N(Cc2cn(CCOCCn3cc(CN([C@@H](C(=O)NO)C(C)C)S(=O)(=O)c4ccc(OC)cc4)nn3)nn2)[C@H](C(=O)NO)C(C)C)cc1` [M007], the inhibition at 0.01 µM at recombinant MMP-13 was 96%; on recombinant MMP-8, 94%; at recombinant MMP-2 (setting [2]), 64%; on recombinant MMP-9 (setting [3]), 89%. Also, the inhibition at 0.1 µM on recombinant MMP-13 stood at 99%; on recombinant MMP-8, 100%; on recombinant MMP-2 (100 nM (0.1 uM) compound, read-out: inhibition of MMP-2 activity, % of total activity), 95%; on recombinant MMP-9 (100 nM (0.1 uM) compound, read-out: inhibition of MMP-9 activity, % of total activity), 100%. Further, the “MMP inhibition (in words)” value with MMP is given as “good MMP inhibition”.

Turning to `COc1ccc(S(=O)(=O)N(Cc2cn(CCOCCn3cc(CCCF)nn3)nn2)[C@@H](C(=O)NO)C(C)C)cc1` [M008], the inhibition at 0.01 µM at recombinant MMP-13 was determined as 82%; on recombinant MMP-8 it was 95%; at recombinant MMP-2 (setting [2]), 82%; on recombinant MMP-9 (setting [3]), 78%.

For `COc1ccc(S(=O)(=O)N(Cc2cn(CCOCCOCCOCCNC(=O)CCC(NC(=O)Cn3cc(CCCF)nn3)C(=O)NCCOCCOCCOCCn3cc(CN([C@@H](C(=O)NO)C(C)C)S(=O)(=O)c4ccc(OC)cc4)nn3)nn2)[C@@H](C(=O)NO)C(C)C)cc1` (some centres unmarked) [M009], the inhibition at 0.01 µM turned out to be 64% on recombinant MMP-13, 46% on recombinant MMP-8 and 59% on recombinant MMP-2 (setting [2]). Moreover, on recombinant MMP-9 (concentration not given), the “inhibition of MMP-9 activity, % of total activity” value is 48%.

As to `COc1ccc(S(=O)(=O)N(Cc2cn(CCOCCOCCOCCNC(=O)CCC(NC(=O)Cn3cc(CCCF)nn3)C(=O)NCCOCCOCCOCCn3cc(CN([C@@H](C(=O)NOC(C)(C)C)C(C)C)S(=O)(=O)c4ccc(OC)cc4)nn3)nn2)[C@@H](C(=O)NO)C(C)C)cc1` (some centres unmarked) [M010], the inhibition at 0.01 µM is 10% on recombinant MMP-13, 13% at recombinant MMP-8, 28% at recombinant MMP-2 (setting [2]) and 2% on recombinant MMP-9 (setting [3]).

For the molecule `COc1ccc(S(=O)(=O)N(Cc2cn(CCOCCNC(=O)c3cc(C(=O)NCCOCCn4cc(CN([C@@H](C(=O)NO)C(C)C)S(=O)(=O)c5ccc(OC)cc5)nn4)cc(-n4cc(CCCF)nn4)c3)nn2)[C@H](C(=O)NO)C(C)C)cc1` [M011], the inhibition at 0.01 µM is 75% on recombinant MMP-13, 57% on recombinant MMP-8, 50% on recombinant MMP-2 (setting [2]) and 55% at recombinant MMP-9 (setting [3]).

With `COc1ccc(S(=O)(=O)N(Cc2cn(CCOCCNC(=O)c3cc(C(=O)O)cc(-n4cc(CCCF)nn4)c3)nn2)[C@@H](C(=O)NO)C(C)C)cc1` [M013], the inhibition at 0.01 µM at recombinant MMP-13 turned out to be 79%; on recombinant MMP-8 it was 84%; on recombinant MMP-2 (setting [2]) it was 66%; at recombinant MMP-9 (setting [3]) it was 67%.
